{"source": "patent US20160090383A1", "about": "“ANTIBACTERIAL PHTHALIDE DERIVATIVES” (priority 2013, published 2016)", "assay_in_all_cases": "Bacterial growth minimal inhibitory concentration (microdilution, CLSI M7-A7)", "format_in_all_cases": "cell-based", "key": {"[1]": {"system": "Enterococcus faecium A949", "details": "Enterococcus faecium, A949; multiply-resistant strain (quinolone-resistant and vancomycin-resistant); cation-adjusted Mueller-Hinton Broth; read-out: MIC for E. faecium A949", "method": "(§1) Minimal Inhibitory Concentrations (MICs; […]) were determined in cation-adjusted Mueller-Hinton Broth by a microdilution method following the description given in “Methods for Dilution Antimicrobial Susceptibility Tests for Bacteria that Grow Aerobically”, Approved standard, 7th ed., Clinical and Laboratory Standards Institute (CLSI) Document M7-A7, Wayne, Pa., USA, 2006."}, "[2]": {"system": "Moraxella catarrhalis A894", "details": "Moraxella catarrhalis, A894; quinolone-sensitive strain; cation-adjusted Mueller-Hinton Broth", "method": "as §1"}, "[3]": {"system": "Staphylococcus aureus A798", "details": "Staphylococcus aureus, A798; multiply-resistant strain (quinolone-resistant and methicillin-resistant); cation-adjusted Mueller-Hinton Broth; read-out: MIC for S. aureus A798", "method": "as §1"}, "[4]": {"system": "Staphylococcus aureus ATCC29213", "details": "Staphylococcus aureus, ATCC29213; methicillin-sensitive and quinolone-sensitive strain; cation-adjusted Mueller-Hinton Broth; read-out: MIC for S. aureus ATCC29213", "method": "as §1"}, "[5]": {"system": "Streptococcus pneumonia ATTC49619", "details": "Streptococcus pneumoniae, ATTC49619; quinolone-sensitive strain; cation-adjusted Mueller-Hinton Broth; read-out: MIC for S. pneumonia ATTC49619", "method": "as §1"}}, "data": [{"compound": "O=C(CC1OC(=O)c2cc(-c3cc(F)cc(F)c3)ccc21)NCCn1c(=O)ccc2ccc(F)cc21", "note": "(racemic) [Example 11, rac-2-[5-(3,5-Difluoro-phenyl)-3-oxo-1,3-dihydro-isobenzofuran-1-yl]-N-[2-(7-fluoro-2-oxo-2H-quinolin-1-yl)-ethyl]-acetamide]", "values": [{"measurement": "MIC", "setting": "[1]", "result": 0.25, "unit": "µg/mL"}, {"measurement": "MIC", "setting": "[2]", "result": 0.125, "unit": "µg/mL"}, {"measurement": "MIC", "setting": "[3]", "result": 0.25, "unit": "µg/mL"}, {"measurement": "MIC", "setting": "[4]", "result": 0.031, "unit": "µg/mL"}, {"measurement": "MIC", "setting": "[5]", "result": 0.25, "unit": "µg/mL"}]}, {"compound": "CC(C)=Cc1ccc2c(c1)C(=O)OC2CCNC(=O)Cn1c(=O)ccc2ccc(F)cc21", "note": "(racemic) [Example 25, rac-2-(7-Fluoro-2-oxo-2H-quinolin-1-yl)-N-{2-[5-(2-methyl-propenyl)-3-oxo-1,3-dihydro-isobenzofuran-1-yl]-ethyl}-acetamide]", "values": [{"measurement": "MIC", "setting": "[1]", "result": 0.5, "unit": "µg/mL"}, {"measurement": "MIC", "setting": "[2]", "result": 4, "unit": "µg/mL"}, {"measurement": "MIC", "setting": "[3]", "result": 0.25, "unit": "µg/mL"}, {"measurement": "MIC", "setting": "[4]", "result": 0.063, "unit": "µg/mL"}, {"measurement": "MIC", "setting": "[5]", "result": 1, "unit": "µg/mL"}]}, {"compound": "O=C1OC(C(=O)NCCCn2c(=O)ccc3ccc(F)cc32)c2ccc(C3=CCCCC3)cc21", "note": "(racemic) [Example 21, rac-5-Cyclohex-1-enyl-3-oxo-1,3-dihydro-isobenzofuran-1-carboxylic acid [3-(7-fluoro-2-oxo-2H-quinolin-1-yl)-propyl]-amide]", "values": [{"measurement": "MIC", "setting": "[1]", "result": 4, "unit": "µg/mL"}, {"measurement": "MIC", "setting": "[2]", "result": 2, "unit": "µg/mL"}, {"measurement": "MIC", "setting": "[3]", "result": 0.125, "unit": "µg/mL"}, {"measurement": "MIC", "setting": "[4]", "result": 0.125, "unit": "µg/mL"}, {"measurement": "MIC", "setting": "[5]", "result": 4, "unit": "µg/mL"}]}, {"compound": "COc1ccc2ncc(=O)n(CCNCCC3OC(=O)c4cc(-c5ccccc5)ccc43)c2n1", "note": "(racemic) [Example 2, rac-6-Methoxy-4-{2-[2-(3-oxo-5-phenyl-1,3-dihydro-isobenzofuran-1-yl)-ethylamino]-ethyl}-4H-pyrido[2,3-b]pyrazin-3-one]", "values": [{"measurement": "MIC", "setting": "[1]", "result": 0.25, "unit": "µg/mL"}, {"measurement": "MIC", "setting": "[2]", "result": 0.5, "unit": "µg/mL"}, {"measurement": "MIC", "setting": "[3]", "result": 0.125, "unit": "µg/mL"}, {"measurement": "MIC", "setting": "[4]", "result": 0.031, "unit": "µg/mL"}, {"measurement": "MIC", "setting": "[5]", "result": 0.5, "unit": "µg/mL"}]}, {"compound": "O=C(Cn1c(=O)ccc2ccc(F)cc21)NCCC1OC(=O)c2cc(C3=CCCCC3)ccc21", "note": "(racemic) [Example 22, rac-N-[2-(5-Cyclohex-1-enyl-3-oxo-1,3-dihydro-isobenzofuran-1-yl)-ethyl]-2-(7-fluoro-2-oxo-2H-quinolin-1-yl)-acetamide]", "values": [{"measurement": "MIC", "setting": "[1]", "result": 0.5, "unit": "µg/mL"}, {"measurement": "MIC", "setting": "[2]", "result": 1, "unit": "µg/mL"}, {"measurement": "MIC", "setting": "[3]", "result": 0.125, "unit": "µg/mL"}, {"measurement": "MIC", "setting": "[4]", "result": 0.031, "unit": "µg/mL"}, {"measurement": "MIC", "setting": "[5]", "result": 1, "unit": "µg/mL"}]}, {"compound": "O=C1OC(C(=O)NCCCn2c(=O)ccc3ccc(F)cc32)c2ccc(-c3ccccc3)cc21", "note": "(racemic) [Example 13, rac-3-Oxo-5-phenyl-1,3-dihydro-isobenzofuran-1-carboxylic acid [3-(7-fluoro-2-oxo-2H-quinolin-1-yl)-propyl]-amide]", "values": [{"measurement": "MIC", "setting": "[1]", "result": 0.5, "unit": "µg/mL"}, {"measurement": "MIC", "setting": "[2]", "result": "> 8", "unit": "µg/mL"}, {"measurement": "MIC", "setting": "[3]", "result": 0.125, "unit": "µg/mL"}, {"measurement": "MIC", "setting": "[4]", "result": 0.063, "unit": "µg/mL"}, {"measurement": "MIC", "setting": "[5]", "result": 1, "unit": "µg/mL"}]}]}
